Experimental data as given in patent US9315490B2, “2,5-substituted pyrimidines” (Grünenthal GmbH, priority 2014, dated 2016).

Target: T1, human PDE4B1 (Homo sapiens, UniProt Q07343)
T1 construct: host or cells: Sf9 cells
Test: TR-FRET assay using the LANCE Ultra cAMP kit to determine the activity of hPDE4B1
Assay type: biochemical
Conditions: read-out: Inhibition in % (inhibition of PDE4B); for inhibition at 10 µM: test concentration 10 μM (marked in cell); for inhibition at 1 µM: test concentration 1 μM
Text: TR-FRET Assay Using the LANCE® Ultra cAMP Kit to Determine the Activity of hPDE4B1
The effects of the compounds on the activity of the human PDE4B1 was quantified by measuring the production of 5′AMP from cAMP using a human recombinant enzyme expressed in Sf9 cells and the LANCE® Ultra cAMP kit, a TR-FRET detection method from PerkinElmer. The human PDE4B1 enzyme was purchased from SignalChem Lifesciences (Catalog# P92-31BG, Lot# H296-2).
The test compound, reference compound or water (control) was mixed with the enzyme (0.96 U) in a reaction buffer containing 50 mM Tris-HCl, 50 mM MgCl2 and 5 mM DTT (pH 8.5). Thereafter, the reaction was initiated by addition of 500 nM cAMP (substrate) and the mixture was incubated for 30 minutes at room temperature. For control basal measurements, the enzyme was omitted from the reaction mixture. After 30 minutes, the reaction was stopped and diluted by a factor of 100 with the reaction buffer supplemented with 500 μM IBMX. The fluorescence donor (europium chelate-labeled cAMP) and the fluorescence acceptor (anti-cAMP antibody labeled with the ULight™ dye) were then added together with 500 μM IBMX to a 10 μl aliquot. After 60 minutes, the fluorescence transfer corresponding to the amount of residual cAMP was measured at λex=337 nm, λem=620 nm and λem=665 nm using a microplate reader (PHERAstar, BMG). The enzyme activity was determined by dividing the signal measured at 665 nm by that measured at 620 nm (ratio) multiplied by 10000. The results were expressed as percent inhibition of the control enzyme activity. IC50 values (IC50=concentration causing a half-maximal inhibition of control specific activity) were derived from dose response measurements with ten different concentrations (n=3; N=1-3).

T1 sequence (Q07343 whole entry): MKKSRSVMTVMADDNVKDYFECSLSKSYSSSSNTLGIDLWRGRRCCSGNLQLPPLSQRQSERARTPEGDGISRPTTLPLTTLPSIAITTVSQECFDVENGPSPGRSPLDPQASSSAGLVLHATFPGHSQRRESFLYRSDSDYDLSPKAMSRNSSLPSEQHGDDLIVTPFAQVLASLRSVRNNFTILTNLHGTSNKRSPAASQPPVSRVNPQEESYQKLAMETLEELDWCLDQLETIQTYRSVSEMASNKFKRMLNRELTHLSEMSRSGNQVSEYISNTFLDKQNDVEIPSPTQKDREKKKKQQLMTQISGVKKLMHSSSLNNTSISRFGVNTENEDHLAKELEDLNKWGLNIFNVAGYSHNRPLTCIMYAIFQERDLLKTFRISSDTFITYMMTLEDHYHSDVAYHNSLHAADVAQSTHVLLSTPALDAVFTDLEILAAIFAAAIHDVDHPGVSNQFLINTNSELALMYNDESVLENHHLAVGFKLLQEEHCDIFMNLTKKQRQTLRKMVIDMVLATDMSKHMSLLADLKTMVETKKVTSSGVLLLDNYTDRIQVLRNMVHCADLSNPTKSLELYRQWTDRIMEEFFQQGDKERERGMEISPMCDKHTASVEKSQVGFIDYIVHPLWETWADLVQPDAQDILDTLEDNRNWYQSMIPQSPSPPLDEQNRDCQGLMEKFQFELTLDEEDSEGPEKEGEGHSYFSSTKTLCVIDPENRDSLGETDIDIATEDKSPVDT

Row | SMILES | inhibition at 10 µM [%] | inhibition at 1 µM [%]
1 | CCc1ccnc(-c2cnc(-n3cc(S(C)(=O)=O)c4ccc(C(=O)N5CCOCC5)cc43)nc2)c1 [Example 325, (1-(5-(4-Ethylpyridin-2-yl)pyrimidin-2-yl)-3-(methylsulfonyl)-1H-indol-6-yl)(morpholino)methanone] | 91 | –
2 | CC(C)c1ccnc(-c2cnc(-n3cc(S(C)(=O)=O)c4ccc(C(=O)N5CCOCC5)cc43)nc2)c1 [Example 324, (1-(5-(4-Isopropylpyridin-2-yl)pyrimidin-2-yl)-3-(methylsulfonyl)-1H-indol-6-yl)(morpholino)methanone] | – | 76
3 | C[S+]([O-])c1cn(-c2ncc(-c3ccccc3F)cn2)c2cc(C(=O)N3CC[C@@H](CO)C3)ccc12 (stereo partly drawn) [Example 302, (1-(5-(2-Fluorophenyl)pyrimidin-2-yl)-3-(methylsulfinyl)-1H-indol-6-yl)((R)-3-(hydroxymethyl)pyrrolidin-1-yl)methanone] | 103 | –
4 | CCOc1ccc(F)c(-c2cnc(-n3cc(C(C)O)c4ccc(C(=O)N5CCOCC5)cc43)nc2)c1 (centres unmarked) [Example 319, (1-(5-(5-Ethoxy-2-fluorophenyl)pyrimidin-2-yl)-3-(1-hydroxyethyl)-1H-indol-6-yl)(morpholino)methanone] | 99 | –
5 | C[S+]([O-])c1cn(-c2ncc(-c3cc(OC(F)(F)F)ccc3F)cn2)c2cc(C(=O)N3CCOCC3)ccc12 (centres unmarked) [Example 263, (1-(5-(2-Fluoro-5-(trifluoromethoxy)phenyl)pyrimidin-2-yl)-3-(methylsulfinyl)-1H-indol-6-yl)(morpholino)methanone] | – | 97
6 | Cc1ccc(F)c(-c2cnc(-n3cc(C(C)O)c4ccc(C(=O)N(C)CC(N)=O)cc43)nc2)c1 (centres unmarked) [Example 323, N-(2-Amino-2-oxoethyl)-1-(5-(2-fluoro-5-methylphenyl)pyrimidin-2-yl)-3-(1-hydroxyethyl)-N-methyl-1H-indole-6-carboxamide] | 103 | –
7 | Cc1ccc(F)c(-c2cnc(-n3cc(C(C)O)c4ccc(C(=O)N(C)C)cc43)nc2)c1 (centres unmarked) [Example 322, 1-(5-(2-Fluoro-5-methylphenyl)pyrimidin-2-yl)-3-(1-hydroxyethyl)-N,N-dimethyl-1H-indole-6-carboxamide] | 100 | –
8 | C[S+]([O-])c1cn(-c2ncc(-c3ccccc3F)cn2)c2cc(C(=O)N3CC=CCC3)ccc12 (centres unmarked) [Example 306, (5,6-Dihydropyridin-1(2H)-yl)(1-(5-(2-fluorophenyl)pyrimidin-2-yl)-3-(methylsulfinyl)-1H-indol-6-yl)methanone] | – | 80
9 | CCc1ccc(F)c(-c2cnc(-n3cc(C(C)O)c4ccc(C(=O)N(C)CC(N)=O)cc43)nc2)c1 (centres unmarked) [Example 331, N-(2-Amino-2-oxoethyl)-1-(5-(5-ethyl-2-fluorophenyl)pyrimidin-2-yl)-3-(1-hydroxyethyl)-N-methyl-1H-indole-6-carboxamide] | 109 | –
10 | C[S+]([O-])c1cn(-c2ncc(-c3ccccc3F)cn2)c2cc(C(=O)N3CC[C@H](CO)C3)ccc12 (stereo partly drawn) [Example 303, (1-(5-(2-Fluorophenyl)pyrimidin-2-yl)-3-(methylsulfinyl)-1H-indol-6-yl)((S)-3-(hydroxymethyl)pyrrolidin-1-yl)methanone] | 99 | –
11 | CS(=N)(=O)c1cn(-c2ncc(-c3ccccc3F)cn2)c2cc(C(=O)N3CCOCC3)ccc12 (centres unmarked) [Example 287, (1-(5-(2-Fluorophenyl)pyrimidin-2-yl)-3-(S-methylsulfonimidoyl)-1H-indol-6-yl)(morpholino)methanone] | – | 93

Further lines, results first:

Row | inhibition at 10 µM [%] | inhibition at 1 µM [%] | SMILES
12 | – | 98 | Cc1ccc(F)c(-c2cnc(-n3cc([S+](C)[O-])c4ccc(C(=O)N5CCCC5)cc43)nc2)c1 (centres unmarked) [Example 265, (1-(5-(2-Fluoro-5-methylphenyl)pyrimidin-2-yl)-3-(methylsulfinyl)-1H-indol-6-yl)(pyrrolidin-1-yl)methanone]
13 | – | 93 | CN(C)C(=O)c1ccc2c([S+](C)[O-])cn(-c3ncc(-c4cc(N(C)C)ccn4)cn3)c2c1 (centres unmarked) [Example 272, 1-(5-(4-(Dimethylamino)pyridin-2-yl)pyrimidin-2-yl)-N,N-dimethyl-3-(methylsulfinyl)-1H-indole-6-carboxamide]
14 | – | 97 | Cc1ccc(F)c(-c2cnc(-n3cc([S+](C)[O-])c4ccc(C(=O)N(C)CC(N)=O)cc43)nc2)c1 (centres unmarked) [Example 281, N-(2-Amino-2-oxoethyl)-1-(5-(2-fluoro-5-methylphenyl)pyrimidin-2-yl)-N-methyl-3-(methylsulfinyl)-1H-indole-6-carboxamide]
15 | – | 95 | CCc1ccnc(-c2cnc(-n3cc([S+](C)[O-])c4ccc(C(=O)N5CCOCC5)cc43)nc2)c1 (centres unmarked) [Example 259]
16 | 99 | – | CN(CC(N)=O)C(=O)c1ccc2c([S+](C)[O-])cn(-c3ncc(-c4cc(C(C)(C)O)ccc4F)cn3)c2c1 (single isomer, unassigned) [Example 334, N-(2-Amino-2-oxoethyl)-1-(5-(2-fluoro-5-(2-hydroxypropan-2-yl)phenyl)pyrimidin-2-yl)-N-methyl-3-(methylsulfinyl)-1H-indole-6-carboxamide]
17 | – | 102 | Cc1ccnc(-c2cnc(-n3cc([S+](C)[O-])c4ccc(C(=O)N(C)C)cc43)nc2)c1 (centres unmarked) [Example 270, N,N-Dimethyl-1-(5-(4-methylpyridin-2-yl)pyrimidin-2-yl)-3-(methylsulfinyl)-1H-indole-6-carboxamide]
18 | – | 98 | CCN(C)C(=O)c1ccc2c([S+](C)[O-])cn(-c3ncc(-c4cc(C)ccc4F)cn3)c2c1 (centres unmarked) [Example 266, N-Ethyl-1-(5-(2-fluoro-5-methylphenyl)pyrimidin-2-yl)-N-methyl-3-(methylsulfinyl)-1H-indole-6-carboxamide]
19 | 87 | – | Cc1ccnc(-c2cnc(-n3cc([S+](C)[O-])c4ccc(C(=O)N(C)CCO)cc43)nc2)c1 (centres unmarked) [Example 317, N-(2-Hydroxyethyl)-N-methyl-1-(5-(4-methylpyridin-2-yl)pyrimidin-2-yl)-3-(methylsulfinyl)-1H-indole-6-carboxamide]
20 | – | 97 | CN(C)c1ccnc(-c2cnc(-n3cc([S+](C)[O-])c4ccc(C(=O)N5C[C@@H]6C[C@H]5CN6)cc43)nc2)c1 (stereo partly drawn) [Example 248, (1S,4S)-2,5-Diazabicyclo[2.2.1]heptan-2-yl(1-(5-(4-(dimethylamino)pyridin-2-yl)pyrimidin-2-yl)-3-(methylsulfinyl)-1H-indol-6-yl)methanone]
21 | 64 | – | Cc1ccnc(-c2cnc(-n3cc([S+](C)[O-])c4ccc(C(=O)N5CC[C@@H](N)C5)cc43)nc2)c1 (stereo partly drawn) [Example 336, ((R)-3-Aminopyrrolidin-1-yl)(1-(5-(4-methylpyridin-2-yl)pyrimidin-2-yl)-3-(methylsulfinyl)-1H-indol-6-yl)methanone]
22 | – | 97 | C[S+]([O-])c1cn(-c2ncc(-c3cc(NCC4CC4)ccn3)cn2)c2cc(C(=O)N3CCOCC3)ccc12 (centres unmarked) [Example 296, (1-(5-(4-((Cyclopropylmethyl)amino)pyridin-2-yl)pyrimidin-2-yl)-3-(methylsulfinyl)-1H-indol-6-yl)(morpholino)methanone]
23 | – | 94 | Cc1ccc(F)c(-c2cnc(-n3cc([S+](C)[O-])c4ccc(C(=O)N(C)C)cc43)nc2)c1 (centres unmarked) [Example 267, 1-(5-(2-Fluoro-5-methylphenyl)pyrimidin-2-yl)-N,N-dimethyl-3-(methylsulfinyl)-1H-indole-6-carboxamide]
